Experimental data taken from PMC11220795 (Molecular Pharmaceutics, 2024).

experiment: not given; settings: decadic logarithm of molar solubility in MCTs; ref Alsenz, J. and Kuentz, M., 2019; cited from earlier work

Compound | log10 S [M]
CCCN(CCC)S(=O)(=O)c1ccc(C(=O)O)cc1 [probenecid] | -2.16 M
CCCCNC(=O)NS(=O)(=O)c1ccc(C)cc1 [tolbutamide] | -1.85 M
Clc1ccccc1C(c1ccccc1)(c1ccccc1)n1ccnc1 [clotrimazole] | -1.45 M
CCCSc1ccc2nc(NC(=O)OC)[nH]c2c1 [albendazole] | -2.91 M
O=C1[C@H](CC[C@H](O)c2ccc(F)cc2)[C@@H](c2ccc(O)cc2)N1c1ccc(F)cc1 [ezetimibe] | -2.16 M
NS(=O)(=O)c1cc(C(=O)O)c(NCc2ccco2)cc1Cl [furosemide] | -3.18 M
COC1=CC(=O)C[C@@H](C)[C@]12Oc1c(Cl)c(OC)cc(OC)c1C2=O [griseofulvin] | -2.59 M
COc1ccc(Cl)cc1C(=O)NCCc1ccc(S(=O)(=O)NC(=O)NC2CCCCC2)cc1 [glibenclamide] | -3.62 M
O=C1C(CC[S+]([O-])c2ccccc2)C(=O)N(c2ccccc2)N1c1ccccc1 (stereo not drawn) [sulfinpyrazone] | -2.33 M
COc1ccc2c(c1)c(CC(=O)OCC(=O)O)c(C)n2C(=O)c1ccc(Cl)cc1 [acemetacin] | -2.33 M
CN1C(C(=O)Nc2ccccn2)=C(O)c2ccccc2S1(=O)=O [piroxicam] | -2.25 M
CC(=O)[C@H]1CC[C@H]2[C@@H]3CCC4=CC(=O)CC[C@]4(C)[C@H]3CC[C@]12C [progesterone] | -1.05 M
CC(C)(C)NCC(O)COc1cccc2c1CC(O)C(O)C2 (stereo not drawn) [nadolol] | -3.23 M
COc1cc2c(c(OC)c1OC)-c1ccc(OC)c(=O)cc1[C@@H](NC(C)=O)CC2 [colchicine] | -2.34 M
Cc1ccccc1-c1cc(N2CCOCC2)ncc1N(C)C(=O)C(C)(C)c1cc(C(F)(F)F)cc(C(F)(F)F)c1 [befetupitant] | -1.08 M
CC(=O)CC(c1ccccc1)c1c(O)c2ccccc2oc1=O (stereo not drawn) [warfarin] | -2.14 M
C[C@]12CC[C@H]3[C@@H](CCC4=CC(=O)CC[C@@]43C)[C@@H]1CC[C@@H]2O [testosterone] | -1.56 M
CC(C(=O)O)c1ccc(-c2ccccc2)c(F)c1 (stereo not drawn) [flurbiprofen] | -0.86 M
CC(=O)N1CCN(c2ccc(OCC3COC(Cn4ccnc4)(c4ccc(Cl)cc4Cl)O3)cc2)CC1 (stereo not drawn) [ketoconazole] | -2.90 M
CC(=O)OCC(=O)[C@@]1(O)CC[C@H]2[C@@H]3CCC4=CC(=O)CC[C@]4(C)[C@H]3[C@@H](O)C[C@@]21C [hydrocortisone acetate] | -3.54 M
CC(=O)Oc1ccc(C(c2ccc(OC(C)=O)cc2)c2ccccn2)cc1 [bisacodyl] | -2.22 M
reserpine | -3.06 M
C[C@@H]1C[C@H]2[C@@H]3CCC4=CC(=O)C=C[C@]4(C)[C@@]3(F)[C@@H](O)C[C@]2(C)[C@@]1(O)C(=O)CO [dexamethasone] | -3.21 M
CCN(CC)CC(=O)Nc1c(C)cccc1C [lidocaine] | -0.71 M
O=C1NC(=O)C(c2ccccc2)(c2ccccc2)N1 [phenytoin] | -3.00 M
Cc1cccc(Nc2ccccc2C(=O)O)c1C [mefenamic acid] | -1.97 M
CC(C)Cc1ccc(C(C)C(=O)O)cc1 (stereo not drawn) [ibuprofen] | -0.82 M

same assay, conditions: decadic logarithm of molar solubility in MCTs; ref Alskär, L.C., Porter, C.J. and Bergström, C.A., 2016; cited from earlier work

Compound | log10 S [M]
CC(C)(Oc1ccc(C(=O)c2ccc(Cl)cc2)cc1)C(=O)O [fenofibric acid] | -2.21 M
CCCCN(CCCC)CCC(O)c1cc2c(Cl)cc(Cl)cc2c2cc(C(F)(F)F)ccc12 (stereo not drawn) [halofantrine] | -0.70 M
O=C(O)c1cc(-c2ccc(F)cc2F)ccc1O [diflunisal] | -1.18 M
OCCN(CCO)c1nc(N2CCCCC2)c2nc(N(CCO)CCO)nc(N3CCCCC3)c2n1 [dipyridamole] | -3.56 M
CCN(CC)C(=S)SSC(=S)N(CC)CC [disulfiram] | -0.73 M
COc1ccc2cc([C@H](C)C(=O)O)ccc2c1 [naproxen] | -1.38 M
COc1cc(C)c(/C=C/C(C)=C/C=C/C(C)=C/C(=O)O)c(C)c1C [acitretin] | -3.13 M
CCOC(=O)C1=C(C)NC(C)=C(C(=O)OC)C1c1cccc(Cl)c1Cl (stereo not drawn) [felodipine] | -1.16 M
C#C[C@]1(O)CC[C@H]2[C@@H]3CCc4cc(O)ccc4[C@H]3CC[C@@]21C [ethinylestradiol] | -0.83 M
O=C(Nc1ccc([N+](=O)[O-])cc1Cl)c1cc(Cl)ccc1O [niclosamide] | -2.06 M

same assay, conditions: decadic logarithm of molar solubility in MCTs; ref Wyttenbach, N. 2007, AAPS PharmSci360 Poster W4355; cited from earlier work

Compound | log10 S [M]
Nc1ccc(S(=O)(=O)Nc2nccs2)cc1 [sulfathiazole] | -3.93 M

same assay, conditions: decadic logarithm of molar solubility in MCTs; ref Wyttenbach, N., Niederquell, A., Ectors, P. and Kuentz, M., 2022; cited from earlier work

Compound | log10 S [M]
Cc1ccc(-c2cc(C(F)(F)F)nn2-c2ccc(S(N)(=O)=O)cc2)cc1 [celecoxib] | -1.66 M
c1ccc(-c2ccc(C(c3ccccc3)n3ccnc3)cc2)cc1 (stereo not drawn) [bifonazole] | -1.97 M
NC(=O)N1c2ccccc2C=Cc2ccccc21 [carbamazepine] | -2.09 M

experiment: Drug solubility in medium-chain triglycerides (MCT, Miglyol 812 N); SORESOS 96-well assay, miniaturized shake-flask or literature; settings: decadic logarithm of molar solubility in MCTs (Miglyol 812 N), 24 h at room temperature; no literature source given
Method: The excipient complies with the quality specifications of the European Pharmacopoeia. The solvents used for the ultra-performance liquid chromatography (UPLC) quantification were of UPLC grade.
(b) employing a miniaturized version of the shake-flask method in 2 mL glass vials,[33] or (c) collecting data from the literature.[12],[34] Each of the employed assays involved residual solid-state screenings by powder X-ray diffraction to identify potential solid-state changes during solubility screenings.

Compound | log10 S [M]
CN1C(=O)N(c2ccc(C#Cc3ccccc3)cn2)[C@@H]2CCC[C@H]21 [RO6805600] | -1.07 M
COc1ccc(N2CCOCC2)c2sc(NC(=O)N3CCC(C)(O)CC3)nc12 [RO4494351] | -3.40 M
CN(C(=O)c1ncc(C#Cc2cccc(F)c2)cn1)C(C)(C)C [RO6807794] | -1.40 M
COc1ccc(Cl)cc1S(=O)(=O)N1CCOc2ccc(C(=O)Nc3ccc(C(=O)O)cc3)cc21 [RO5014449] | -4.05 M
COc1cc(C(=O)Nc2nc3c(OC)ccc([C@H]4COCCO4)c3s2)ccn1 [RO4545823] | -2.38 M
Cc1cc(-c2ccc(C(F)(F)F)cc2)cc(-c2cccc(-c3cccc(S(N)(=O)=O)c3)n2)n1 [RO5132673] | -2.96 M
Cc1c(Cl)cccc1Nc1ccccc1C(=O)O [tolfenamic acid] | -1.65 M
Cn1ncc(C(=O)N2CCOCC2)c1C(=O)Nc1ccn2nc(-c3ccccc3)nc2c1 [RO5545965] | -3.23 M
C[C@@H](c1ncncc1F)[C@](O)(Cn1cncn1)c1ccc(F)cc1F [voriconazole] | -1.45 M
Cc1cccc(C#Cc2cn(-c3cnn(C)c(=O)c3)c(C)n2)c1 [RO5372709] | -2.90 M
O=C(O)COC(=O)Cc1ccccc1Nc1c(Cl)cccc1Cl [aceclofenac] | -1.84 M
OCCOc1ccc(/C(=C(/CCCl)c2ccccc2)c2ccccc2)cc1 [ospemifene] | -1.47 M
COc1ccc(N2CCOCC2)c2sc(NC(=O)N3CC[S+]([O-])CC3)nc12 [RO0712616] | -4.84 M
Cc1cc(C#Cc2cn(-c3ccc(F)cc3)c(C)n2)ccn1 [RO4582939] | -1.38 M
CC(C)/N=c1\cc2n(-c3ccc(Cl)cc3)c3ccccc3nc-2cc1Nc1ccc(Cl)cc1 [clofazimine] | -1.65 M
Cc1ccc(Nc2cncnc2)c(C(=O)Nc2ccn(C)n2)n1 [RO5012841] | -2.35 M
O=C(OCc1ccc(OC(F)(F)F)cc1)N1C[C@@H]2CN(C(=O)c3ccc4n[nH]nc4c3)C[C@@H]2C1 [RO6897779] | -3.50 M
CCOC(=O)C1=C(C)NC(C)=C(C(=O)OCC)C1c1ccccc1/C=C/C(=O)OC(C)(C)C [lacidipine] | -2.00 M
CCc1cc(CCN(Cc2ccc(C(C)(C)C)cc2)C(=O)c2cc(C(F)(F)F)cc(Cl)c2F)ccc1Cl [RO5132822] | -0.16 M
CC(C)(C(=O)NCC(F)(F)C(F)(F)F)C(=O)N[C@@H]1C(=O)Nc2ccccc2-c2ccccc21 [RO4929097] | -2.24 M
COc1cc(C(F)(F)F)cc(SC)c1C(=O)N[C@@]1(c2ccccc2)C[C@@H](OC)CN(C)C1 [RO5469299] | -1.78 M
CN(C(=O)c1ccc(C#Cc2cc(F)ccc2F)cn1)C(C)(C)C [RO6806127] | -1.29 M
C/C(O)=C(\C#N)C(=O)Nc1ccc(C(F)(F)F)cc1 [teriflunomide] | -2.30 M
CCn1c(=O)c2c(nc(/C=C/c3ccc(OC)c(OC)c3)n2C)n(CC)c1=O [istradefylline] | -2.46 M
Cc1cc(F)ccc1-c1cc(N2CCS(=O)(=O)CC2)ncc1N(C)C(=O)C(C)(C)c1cc(C(F)(F)F)cc(C(F)(F)F)c1 [RO0728351] | -2.03 M
O=C(CCc1ccc(OC(F)(F)F)cc1)N1C[C@@H]2CN(C(=O)c3ccc4[nH]nnc4c3)C[C@@H]2C1 [RO6888975] | -4.07 M
CN1CCN(c2ccc(C(=O)Nc3n[nH]c4ccc(Cc5cc(F)cc(F)c5)cc34)c(NC3CCOCC3)c2)CC1 [RO7102122] | -2.69 M
COc1cc2ncnc(Nc3ccc(F)c(Cl)c3)c2cc1OCCCN1CCOCC1 [gefitinib] | -3.09 M
